Reference: patent US20100251434A1, “METHOD FOR GROWING SUGARCANE” (SYNGENTA CROP PROTECTION, INC., priority 2007, published 2010)

Key:
Conditions in all cases: for Culm Diameter / Leaf Width / Plant Height / Tillers: 42 days after planting
[1] = test system: sugarcane Variety RB 86-7515; experiment: Greenhouse pot test, effect of formulated thiamethoxam on vigour; format: in vivo, sugar cane
Procedure: This trial was conducted on Variety RB 86-7515.

[2] = test system: sugar cane Variety RB 86-7515; experiment: Greenhouse pot test, effect of formulated abamectin on vigour; format: in vivo
Procedure: Greenhouse test with sugarcane buds growing in pots were conducted to study the effect of formulated abamectin regarding “vigour”, tillers, plant height, leaf width and culm diameter on sugar cane Variety RB 86-7515.
1) carretel with one bud treated with abamectin 2) carretel with one bud treated with abamectin+15% v/v of polymer 3) stalk with 3 buds untreated 4) carretel with one bud untreated 5) carretel with one bud untreated+15% v/v of polymer 6) stalk with 3 buds treated with abamectin.
Twenty 1 L pots were filled with 16 L of clay soil, 1.6 L of sand and 8 g of nitrogen, 28 g of phosphorus (P2O5) and 16 g of potassium (K2O). Six carretels of 4 cm length with only one bud were planted in each pot (treatments 1, 2, 4 and 5). Two stalks with three buds were planted in each control pot (treatments 3 and 6) to simulate conventional planting. A layer of 3 cm of soil was used to cover the carretels. The carretels of treatments 1, 2 were treated with 200 ml/ha of abamectin, by dipping the carretels in the slurry for 3 min, based on the uptake capacity of carretels. The stalks were treated simulating a furrow application at 100 L.ha^−1 of slurry. Experimental design adopted was randomized complete block with four replications. The pots were maintained with adequate moisture during the test. Evaluations of: plant height, leaf width, culm diameter and number of tillers were done at 20, 30 and 42 days after planting.

[3] = test system: sugar cane Variety RB 86-7515; experiment: Greenhouse pot test, effect of formulated clothianidin on vigour; format: in vivo
Procedure: Greenhouse test with sugarcane buds growing in pots were conducted to study the effect of clothianidin equivalent to an application rate of 200 g ai. ha^−1 on “vigour”, evaluating tillers, plant height, leaf width and culm diameter. This trial was conducted on sugar cane Variety RB 86-7515.
1) carretel with one bud treated with clothianidin (200 g ai. ha^−1) 2) carretel with one bud treated with clothianidin (200 g ai. ha^−1)+15% v/v of polymer 3) stalk with 3 buds untreated 4) carretel with one bud untreated+15% v/v of polymer 5) carretel with one bud untreated 6) stalk with 3 buds treated with clothianidin (200 g ai. ha^−1).
Twenty 1 L pots were filled with 16 L of clay soil, 1.6 L of sand and 8 g of nitrogen, 28 g of phosphorus (P2O5) and 16 g of potassium (K2O). Six carretels of 4 cm length with one bud were planted in each pot (treatments 1, 2, 4 and 5). Two stalks with three buds were planted in each control pot (treatments 3 and 6) to simulate conventional planting. A layer of 3 cm of soil was used to cover the carretels. The carretels of treatments 1 and 2 were treated with 200 g ai.ha^−1 of clothianidin, by dipping the carretels in a slurry for 3 min. The stalks were treated simulating a furrow application at 100 L.ha^−1 of slurry. The pots were maintained with adequate moisture during the test. Evaluations of: plant height, leaf width, culm diameter and number of tillers were performed at 20, 30 and 42 days after planting.

[4] = test system: sugar cane Variety RB 86 7515; experiment: Greenhouse pot test, effect of formulated imidacloprid on vigour; format: in vivo
Source text: 1) carretel with one bud treated with Imidacloprid (1200 g. ha^−1) 2) carretel with one bud treated with Imidacloprid (1200 g. ha^−1)+15% v/v of polymer 3) stalk with 3 buds untreated 4) carretel with one bud untreated 5) carretel with one bud untreated+15% v/v of polymer 6) stalk with 3 buds treated with Imidacloprid (1200 g. ha^−1).
Twenty 1 L pots were filled with 16 L of clay soil, 1.6 L of sand and 8 g of nitrogen, 28 g of phosphorus (P2O5) and 16 g of potassium (K2O). Six carretels of 4 cm length with one bud were planted in each pot (treatments 1, 2, 4 and 5). Two stalks with three buds were planted in each control pot (treatments 3 and 6) to simulate conventional planting. A layer of 3 cm of soil was used to cover the carretels. The carretels of treatments 1 and 2 were treated with 1200 g ai.ha^−1 of imidacloprid, by dipping the carretels in the slurry for 3 min, based on the uptake capacity of carretels. The stalks were treated simulating a furrow application at 100 L.ha^−1 of slurry. Experimental design adopted was randomized complete block with four replications. The pots were maintained with adequate moisture during the test. Evaluations of: plant height, leaf width, culm diameter and number of tillers were done at 20, 30 and 42 days after planting.

[5] = test system: sugar cane Variety RB 86-7515; experiment: Greenhouse pot test, effect of formulated fipronil on vigour; format: in vivo
Procedure: Greenhouse test with sugarcane buds growing in pots were conducted to study the effect of fipronil equivalent to an application rate of 200 g. ha^−1 on “vigour”, evaluating tillers, plant height, leaf width and culm diameter on sugar cane Variety RB 86-7515.
1) carretel with one bud treated with fipronil (200 g. ha^−1) 2) carretel with one bud treated with fipronil (200 g. ha^−1)+15% v/v of polymer 3) stalk with 3 buds untreated 4) carretel with one bud untreated 5) carretel with one bud untreated+15% v/v of polymer 6) stalk with 3 buds treated with fipronil (200 g. ha-1).
Twenty 1 L pots were filled with 16 L of clay soil, 1.6 L of sand and 8 g of nitrogen, 28 g to of phosphorus (P2O5) and 16 g of potassium (K2O). Six carretels of 4 cm length with one bud were planted in each pot (treatments 1, 2, 4 and 5). Two stalks with three buds were planted in each control pot (treatments 3 and 6) to simulate conventional planting. A layer of 3 cm of soil was used to cover the carretels. The carretels of treatments 1 and 2 were treated with 200 g ai.ha^−1 of fipronil, by dipping the carretels in the slurry for 3 min, based on the uptake capacity of carretels. The stalks were treated simulating a furrow application at 100 L.ha^−1 of slurry. Experimental design adopted was randomized complete block with four replications. The pots were maintained with adequate moisture during the test. Evaluations of: plant height, leaf width, culm diameter and number of tillers were done at 20, 30 and 42 days after planting.

[6] = carretel with one bud, dipped in slurry, 420 g ai/ha (0.0 for Untreated + Polymer)
[7] = stalk with 3 buds, simulated furrow application, 420 g ai/ha
[8] = carretel with one bud, dipped in slurry, 100 g ai/ha (0.0 for Untreated + Polymer)
[9] = stalk with 3 buds, simulated furrow application, 100 g ai/ha
[10] = carretel with one bud, dipped in slurry, 200 g ai/ha (0.0 for Untreated + polymer)
[11] = stalk with 3 buds, simulated furrow application, 200 g ai/ha
[12] = carretel with one bud, dipped in slurry, 1200 g ai/ha (0.0 for Untreated + Polymer)
[13] = stalk with 3 buds, simulated furrow application, 1200 g ai/ha

CN1COCN(Cc2cnc(Cl)s2)/C1=N\[N+](=O)[O-] [Thiamethoxam, thiamethoxam]
Culm Diameter [1, 6]: 7.97 mm | Leaf Width [1, 6]: 14.07 mm | Plant Height [1, 6]: 23.67 cm | Tillers [1, 6]: 15.5 number | number of tillers in comparison with the corresponding controls ([1]; result in words, carretels): increased number of tillers | plant height in comparison with the corresponding controls ([1]; result in words, carretels): reduced plant height | increase in "quality" compared with the other treatments ([1]; result in words, not apparent from the listed parameters): increase in “quality” greater than the other treatments | Culm Diameter [1, 7]: 10.17 mm | Leaf Width [1, 7]: 19.5 mm | Plant Height [1, 7]: 26.52 cm | Tillers [1, 7]: 14.75 number

abamectin
Culm Diameter [2, 8]: 7.67 mm | Leaf Width [2, 8]: 14.58 mm | Plant Height [2, 8]: 22.22 cm | Tillers [2, 8]: 14 number | number of tillers in comparison with the control ([2]; result in words): increase in the number of tillers | plant height in comparison with the control ([2]; result in words): decrease in plant height | Culm Diameter [2, 9]: 12.25 mm | Leaf Width [2, 9]: 20.33 mm | Plant Height [2, 9]: 22.54 cm | Tillers [2, 9]: 19.5 number

CN/C(=N\[N+](=O)[O-])NCc1cnc(Cl)s1 [Clothianidin, clothianidin]
Culm Diameter [3, 10]: 8.75 mm | Leaf Width [3, 10]: 17.17 mm | Plant Height [3, 10]: 25.02 cm | Tillers [3, 10]: 14.5 number | number of tillers in comparison with the corresponding control (untreated, one-bud) ([3]; result in words, carretels): increased number of tillers | plant height in comparison with the corresponding control (untreated, one-bud) ([3]; result in words, carretels): slight reduction in the plant height | Culm Diameter [3, 11]: 11.25 mm | Leaf Width [3, 11]: 21.5 mm | Plant Height [3, 11]: 22.73 cm | Tillers [3, 11]: 17.0 number

O=[N+]([O-])NC1=NCCN1Cc1ccc(Cl)nc1 [Imidacloprid]
Culm Diameter [4, 12]: 8.75 mm | Leaf Width [4, 12]: 15.91 mm | Plant Height [4, 12]: 24.0 cm | Tillers [4, 12]: 15.25 number | effect on vigour compared with the other active ingredients ([4]; result in words): less pronounced than with the other active ingredients | number of tillers in comparison with the control ([4]; result in words): increase in the number of tillers | Culm Diameter [4, 13]: 9.49 mm | Leaf Width [4, 13]: 20.16 mm | Plant Height [4, 13]: 23.49 cm | Tillers [4, 13]: 12.0 number

N#Cc1nn(-c2c(Cl)cc(C(F)(F)F)cc2Cl)c(N)c1[S+]([O-])C(F)(F)F (stereo not drawn) [Fipronil, fipronil]
Culm Diameter [5, 10]: 8.69 mm | Leaf Width [5, 10]: 14.16 mm | Plant Height [5, 10]: 20.62 cm | Tillers [5, 10]: 17.25 number | height of the resultant plants in comparison with the control ([5]; result in words): decreased the height of the resultant plants | number of tillers in comparison with the control ([5]; result in words): increased the number of tillers | Culm Diameter [5, 11]: 10.75 mm | Leaf Width [5, 11]: 18.91 mm | Plant Height [5, 11]: 22.12 cm | Tillers [5, 11]: 16.5 number
